This is an account of results in patent US9346776B2, “Fused heterocyclic compound” (Takeda Pharmaceutical Company Limited, priority 2014, dated 2016).

For assay [1], the target named is T1, Human recombinant enteropeptidase (Homo sapiens, UniProt P98073).
T1 construct: purchased ITSI-Biosciences, LLC #REN-260
Description: Human enteropeptidase inhibitory activity. It is filed as biochemical. The conditions noted are these: 3.3 uM compound; fluorescence 2 hours after start of reaction; read-out: Inhibition rate at 3.3 uM (%). As to the method: Test Example 1 Human enteropeptidase inhibitory activity Human recombinant enteropeptidase (#REN-260, ITSI-Biosciences, LLC) was diluted with an assay buffer (50 mM Tricine (pH 8.0), 0.01 (w/v) % Tween 20, 10 mM CaCl2) to prepare a 24 mU/mL enzyme solution. Subsequently, 5FAM-Abu-Gly-Asp-Asp-Asp-Lys-Ile-Val-Gly-Gly-Lys(CPQ2)-Lys-Lys-NH2 (purity: 97.2%, CPC Scientific, Inc.) produced according to a synthesis method known per se was diluted with an assay buffer to prepare a 2.1 uM (“u” represents “micro”) substrate solution. Each test compound was dissolved in DMSO to prepare a 1 mM solution, which was then diluted 100-fold with an assay buffer to prepare a compound solution. The compound solution (5 uL/well) and the substrate solution (5 uL/well) were added to a 384-well black plate (#784076, Greiner Bio-One) and mixed. Then, the enzyme solution (5 uL/well) was added to the plate and mixed to start reaction. The fluorescence intensity was measured at an excitation wavelength of 485 nm and a fluorescence wavelength of 535 nm using a fluorescence plate reader EnVision (PerkinElmer Inc.). Also, the same reaction as above was performed except that the test compound was not added (test compound non-supplemented group). In addition, the same reaction as above was performed except that neither the test compound nor the enzyme was added (control group). The inhibition rate was calculated from the fluorescence intensity 2 hours after the start of the reaction according to the following equation: Inhibition rate (%)=(1−(Fluorescence intensity of the test compound supplemented group−Fluorescence intensity of the control group)/(Fluorescence intensity of the test compound non-supplemented group−Fluorescence intensity of the control group))×100

Assay [2] has as its system high fat diet-fed (HFD-fed) mouse. Description: Test on elevation of protein concentration in feces using HFD-fed mouse. It is filed as in vivo. The note with it: 10 mg/kg oral, feces recovered at day 1, mean ± SD, 5 mice. As to the method: Test Example 2 Test on elevation of protein concentration in feces using HFD-fed mouse A 0.5% methylcellulose suspension (test compound administered group, 5 mice per group) containing each test compound (10 mg/kg) or a 0.5% methylcellulose suspension (test compound non-administered group (vehicle), 5 mice per group) was orally administered to each high fat diet-fed (HFD-fed) mouse (D12079B diet, male, 18 weeks old), and the whole feces were recovered at day 1 of administration. The dry feces were dissolved in a 0.5 N aqueous sodium hydroxide solution. After centrifugation at 12,000 rpm, a protein concentration was quantified (Lowry method) using the supernatant to calculate a protein concentration (mg/g feces) in 1 g of feces. The mean and standard deviation of each group are shown below.

The test system of assay [3] is diet-induced obesity (DIO) mouse. Description: Test on antiobesity action using DIO mouse. The format is in vivo. The note with it: mean ± SD; for Body weight(g) At start of administration: baseline. As to the method: Test Example 3 Test on antiobesity action using DIO mouse A 0.5% methylcellulose suspension (test compound administered group, 5 or 6 mice per group) containing each test compound (20 or 60 mg/kg) or a 0.5% methylcellulose suspension (test compound non-administered group (vehicle), 6 mice per group) was orally administered to each diet-induced obesity (DIO) mouse (D12079B diet, male, 46 weeks old) once a day for 4 weeks. The means of body weights and standard deviations at the start of administration and after 4-week continuous administration are shown below.

In assay [4] the test system is Male ob/ob mice. Kind of assay: Hypoglycemic action on diabetes mellitus animal model (2-week continuous administration). It is filed as in vivo, mouse. The conditions noted are these: feed containing 0.03% compound for 2 weeks, mean ± SD. An excerpt:
Test Example 4 Hypoglycemic action on diabetes mellitus animal model (2-week continuous administration) Male ob/ob mice (6 weeks old) were used to prepare two groups each involving 5 individuals. One of the groups was fed as a control with feed free from a compound for 2 weeks, while the other group to receive compound treatment was fed with feed containing a compound at a concentration of 0.03% for 2 weeks. After 2 weeks, blood was collected from the tail vein of each mouse, and a diabetes mellitus-ameliorating action brought about by the compound treatment was evaluated. Blood glucose levels were measured using Hitachi automatic analyzer model 7180 (Hitachi, Ltd.), and glycated hemoglobin levels were measured using Tosoh automatic glycohemoglobin analyzer HLC-723G8 (Tosoh Corp.). The blood glucose and glycated hemoglobin levels of each group after the 2-week administration are indicated by mean±standard deviation in Table 6.

Setting [5] is: 20 mg/kg oral once a day for 4 weeks.
Setting [6] is: 60 mg/kg oral once a day for 4 weeks.

T1 sequence (P98073 whole entry): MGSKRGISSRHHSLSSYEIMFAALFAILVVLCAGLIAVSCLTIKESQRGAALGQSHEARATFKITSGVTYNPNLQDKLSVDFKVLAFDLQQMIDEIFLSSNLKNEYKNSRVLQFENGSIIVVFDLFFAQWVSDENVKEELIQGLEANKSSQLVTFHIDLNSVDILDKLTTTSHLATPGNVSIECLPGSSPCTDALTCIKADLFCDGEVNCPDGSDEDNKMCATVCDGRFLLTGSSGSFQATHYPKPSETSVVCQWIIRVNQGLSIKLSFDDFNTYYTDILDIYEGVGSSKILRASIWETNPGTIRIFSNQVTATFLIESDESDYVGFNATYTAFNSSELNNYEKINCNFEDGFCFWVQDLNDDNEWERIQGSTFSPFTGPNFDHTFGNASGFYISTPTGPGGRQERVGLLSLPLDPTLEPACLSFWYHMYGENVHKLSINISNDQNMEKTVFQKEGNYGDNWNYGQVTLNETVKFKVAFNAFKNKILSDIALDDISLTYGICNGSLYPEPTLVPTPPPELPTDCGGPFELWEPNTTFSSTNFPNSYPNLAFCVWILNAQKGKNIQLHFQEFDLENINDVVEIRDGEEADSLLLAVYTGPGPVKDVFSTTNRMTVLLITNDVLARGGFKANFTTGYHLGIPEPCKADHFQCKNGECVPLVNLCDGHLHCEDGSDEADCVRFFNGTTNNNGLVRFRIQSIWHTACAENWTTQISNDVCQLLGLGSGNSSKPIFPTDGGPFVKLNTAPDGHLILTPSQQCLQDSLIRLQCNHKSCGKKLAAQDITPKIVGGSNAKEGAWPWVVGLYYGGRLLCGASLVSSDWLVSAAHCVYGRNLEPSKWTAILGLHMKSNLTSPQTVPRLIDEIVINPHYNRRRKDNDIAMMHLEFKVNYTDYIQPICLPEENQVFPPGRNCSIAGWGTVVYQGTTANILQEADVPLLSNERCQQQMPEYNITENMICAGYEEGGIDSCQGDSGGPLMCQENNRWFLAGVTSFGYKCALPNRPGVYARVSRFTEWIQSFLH

As to `N=C(N)Nc1ccc(C(=O)Oc2ccc3c(c2)OC[C@@H]3CC(=O)N[C@H](CC(=O)O)C(=O)O)cc1` [Example 5, N-(((3R)-6-((4-carbamimidamidobenzoyl)oxy)-2,3-dihydro-1-benzofuran-3-yl)acetyl)-D-aspartic acid], the inhibition (in general, the drop in the measured response relative to a control, in per cent) at 3.3 µM in assay [1] stood at 101%.
Same read-out and setting: under `N=C(N)Nc1ccc(C(=O)Oc2cc(F)c3c(c2)OCC3CC(=O)N[C@@H](CC(=O)O)C(=O)O)cc1` (stereo partly drawn) [Example 10, N-((6-((4-Carbamimidamidobenzoyl)oxy)-4-fluoro-2,3-dihydro-1-benzofuran-3-yl)acetyl)-L-aspartic acid] stands 100%.
On to `N=C(N)Nc1ccc(C(=O)Oc2ccc3c(c2)OC[C@H]3CC(=O)N[C@@H](CCC(=O)O)C(=O)O)cc1` [Example 7], for which the inhibition at 3.3 µM in assay [1] amounted to 101%.
`N=C(N)Nc1ccc(C(=O)Oc2ccc3c(c2)OC[C@@H]3CC(=O)N(CC(=O)O)CC(=O)O)cc1` [Example 8, 2,2′-((((3R)-6-((4-carbamimidamidobenzoyl)oxy)-2,3-dihydro-1-benzofuran-3-yl)acetyl)imino)diacetic acid]: the inhibition at 3.3 µM in assay [1] came out at 100%.
Take `N=C(N)Nc1ccc(C(=O)Oc2ccc3c(c2)OC[C@H]3CC(=O)N[C@@H](CC(=O)O)C(=O)O)cc1` [Example 1, N-(((3S)-6-((4-Carbamimidamidobenzoyl)oxy)-2,3-dihydro-1-benzofuran-3-yl)acetyl)-L-aspartic acid]: the “Protein concentration in feces (mg/g feces)” value in assay [2] came out at 177.6 ± 35.2 mg/g feces. Moreover, the “Body weight(g) After 4-week continous administration” value was determined as 43.8 ± 1.7 g in assay [3] (setting [5]) and 41.7 ± 2.8 g in assay [3] (setting [6]). The “Body weight(g) At start of administration” value was determined as 48.3 ± 2.0 g in assay [3] (20 mg/kg oral once a day) and 49.5 ± 2.2 g in assay [3] (60 mg/kg oral once a day). Also, the inhibition at 3.3 µM in assay [1] was 101%.
Take `N=C(N)Nc1ccc(C(=O)Oc2ccc3c(c2)OC[C@@H]3CC(=O)N[C@@H](CC(=O)O)C(=O)O)cc1` [Example 2, N-(((3R)-6-((4-Carbamimidamidobenzoyl)oxy)-2,3-dihydro-1-benzofuran-3-yl)acetyl)-L-aspartic acid]: the “Protein concentration in feces (mg/g feces)” value in assay [2] was 149.8 ± 24.4 mg/g feces. In addition, the “Body weight(g) After 4-week continous administration” value worked out at 46.0 ± 2.8 g in assay [3] (setting [5]) and 44.4 ± 4.5 g in assay [3] (setting [6]). For the same compound, the “Body weight(g) At start of administration” value in assay [3] (20 mg/kg oral once a day) was 49.6 ± 2.6 g; in assay [3] (60 mg/kg oral once a day), 49.8 ± 2.8 g. Also, in assay [1], the inhibition at 3.3 µM is 101%.
Consider `N=C(N)Nc1ccc(C(=O)Oc2ccc3c(c2)OC[C@@H]3CC(=O)N(CCC(=O)O)CCC(=O)O)cc1` [Example 9, 3,3′-((((3R)-6-((4-carbamimidamidobenzoyl)oxy)-2,3-dihydro-1-benzofuran-3-yl)acetyl)imino)dipropanic acid], for which the inhibition at 3.3 µM in assay [1] was 100%.
Consider `N=C(N)Nc1ccc(C(=O)Oc2ccc3c(c2)OC[C@H]3CC(=O)N[C@@H](CC(=O)O)C(=O)O)cc1` [Example 12, N-(((3S)-6-((4-Carbamimidamidobenzoyl)oxy)-2,3-dihydro-1-benzofuran-3-yl)acetyl)-L-aspartic acid hydrate], for which, in assay [4], the “Blood glucose level” value is on record as 144.2 ± 19.5 mg/dL and the “Glycated hemoglobin level (%)” value amounted to 3.5 ± 0.1%.
Take `N=C(N)Nc1ccc(C(=O)Oc2ccc3c(c2)OC[C@H]3CC(=O)N[C@H](CC(=O)O)C(=O)O)cc1` [Example 4, N-(((3S)-6-((4-carbamimidamidobenzoyl)oxy)-2,3-dihydro-1-benzofuran-3-yl)acetyl)-D-aspartic acid]: the inhibition at 3.3 µM in assay [1] was determined as 100%.
Take `Cc1cc(OC(=O)c2ccc(NC(=N)N)cc2)cc2c1C(CC(=O)N[C@@H](CC(=O)O)C(=O)O)CO2` (stereo partly drawn) [Example 3, N-((6-((4-Carbamimidamidobenzoyl)oxy)-4-methyl-2,3-dihydro-1-benzofuran-3-yl)acetyl)-L-aspartic acid]: the inhibition at 3.3 µM in assay [1] came to 100%.
Take `Cc1c(OC(=O)c2ccc(NC(=N)N)cc2)ccc2c1OCC2CC(=O)N[C@@H](CC(=O)O)C(=O)O` (stereo partly drawn) [Example 11, N-((6-((4-carbamimidamidobenzoyl)oxy)-7-methyl-2,3-dihydro-1-benzofuran-3-yl)acetyl)-L-aspartic acid]: the inhibition at 3.3 µM in assay [1] turned out to be 98%.
Regarding `N=C(N)Nc1ccc(C(=O)Oc2ccc3c(c2)OC[C@@H]3CC(=O)N[C@@H](CCC(=O)O)C(=O)O)cc1` [Example 6, N-(((3R)-6-((4-carbamimidamidobenzoyl)oxy)-2,3-dihydro-1-benzofuran-3-yl)acetyl)-L-glutamic acid], the inhibition at 3.3 µM in assay [1] turned out to be 101%.
